Laboratory results as given in patent publication EP0129932A1, “N,N,N',N'-tetra (hydroxyethyl)-5-acetylamino-2,4,6-triiodoisophtaloyldiglycinamide, a process for the preparation of said compound and an X-ray contrast agent containing said compound” (DAGRA N.V., priority 1983, dated 1985).
≈ marks a conversion by molar mass, not a printed value.

Tests used:
mice = experiment: intravenous toxicity in mice; format: in vivo; details: solution of 300 mg I/ml, injection rate 20 g 1/kg/min
Experimental: The intravenous toxicity was determined in mice, after administration of a solution of 300 mg I/ml at an injection rate of 20 g 1/kg/min.

physchem = details: water

CC(=O)Nc1c(I)c(C(=O)NCC(=O)N(CCO)CCO)c(I)c(C(=O)NCC(=O)N(CCO)CCO)c1I [The compound]
LD50 (mice): 15.4 g I/kg | solubility (physchem): ~3000 mg/mL (≈ 3370 mM)
